Here are results for 4 compounds from patent publication US11965159B2, “Compositions and methods for regulating proteins and nucleic acids activities” (THE BROAD INSTITUTE, INC., priority 2019, dated 2024).

In one test the target is SpCas9 (Streptococcus pyogenes serotype M1, UniProt Q99ZW2). As to the kind of experiment: Cas9 nuclease activity in EGFP disruption assay in U2OS.eGFP.PEST cells. The class given is cell-based. Also noted: host or cells: U2OS.eGFP-PEST. The note with it: 10, 15, 20 μM, 24 h. As for the experimental part:
Cas9 Nuclease activity in EGFP disruption assay. Approximately 200,000 U2OS.eGFP-PEST cells were nucleofected with 400 ng of SpCas9 (Addgene Plasmid #43861) and 40 ng of sgRNA (pFYF1320 EGFP Site #1, Addgene Plasmid #47511) expressing plasmids along with a Td-tomato-encoding plasmid using the SE Cell Line 4D-Nucleofector™ X Kit (Lonza™) according to the manufacturer's protocol. Approximately 20,000 transfected cells/well in 3 replicates were plated in a 96-well plate (Corning® 3904). Cells were allowed to grow in the indicated amount of compound or DMSO for 24 h post transfection. Cells were then fixed using 4% paraformaldehyde and imaged with the HCS NuclearMask™ Blue Stain (Life Technologies™) as the nuclear counter-staining agent. Imaging was performed with an IXM 137204 ImageXpress® Automated High Content Microscope (Molecular Devices™) at 10× magnification under three excitation channels (blue, green and red) with 9 acquiring sites per well. Images were analyzed in the MetaXpress® software and data were plotted using GraphPad Prism 6. The Z′-value was calculated following the formula: […]
Cas9 Nuclease activity in EGFP disruption assay. In some embodiments, a quantitative human cell-based reporter assay that enables rapid quantitation of targeted nuclease activities is used to characterize off-target cleavage of CRISPR protein-based RNA guided endonucleases. In this assay, the activities of nucleases targeted to a single integrated EGFP reporter gene can be quantified by assessing loss of fluorescence signal in human U2OS.EGFP cells caused by inactivating frameshift insertion/deletion (indel) mutations introduced by error prone non-homologous end-joining (NHEJ) repair of nuclease-induced double-stranded breaks (DSBs).
Approximately 200,000 U2OS.eGFP-PEST cells were nucleofected with 400 ng of SpCas9 (Addgene Plasmid #43861) and 40 ng of sgRNA (pFYF1320 EGFP Site #1, Addgene Plasmid #47511) expressing plasmids along with a Td-tomato-encoding plasmid using the SE Cell Line 4D-Nucleofector™ X Kit (Lonza™) according to the manufacturer's protocol. […]

Another test concerns the target T1, SpCas9:gRNA complex (Streptococcus pyogenes serotype M1, UniProt Q99ZW2).
T1 construct: His6 (N, cleaved yes); made in house; host or cells: E. coli BL21 Star (DE3)
As to the kind of experiment: Compound-Cas9 interaction in Bio-Layer Interferometry (BLI). The class given is binding. As to conditions: excess (10×) of biotin to BRD7087 loading. The method, then: Compound-Cas9 interaction in BLI. The experiments were performed in a 96-well format with 180 μL reaction volume using biotinylated compound BRD7087-Biotin and streptavidin sensors. 1 μM of the biotinylated compound was loaded onto the sensors for 180s in 20 mM Tris buffer of pH 7.4, 100 mM KCl, 5 mM MgCl2, 1 mM DTT, 0.01% Tween. The compound loaded sensors were then allowed to associate with the different concentration of SpCas9:gRNA complex (1-0.15 μM) for 300s followed by dissociation in the reaction buffer. Reference sensor was loaded with compound and allowed to associate and dissociate in the reaction buffer alone. The response curves were fitted with a 2:1 stoichiometric model and a global fit steady-state analysis were performed using manufacturer inbuilt protocol. The experiment was performed in three replicates.
The competitive experiments were performed using Biotin-linker fragment. In this experiment, streptavidin sensors were pre-incubated with 10 μM of Biotin-linker before dipping into a solution of either 1 μM BRD7087-Biotin or reaction buffer alone. Sensors were then allowed to associate with different concentration of SpCas9:gRNA complex or buffer alone.
Compound-Cas9 interaction in BLL The experiments were performed in a 96-well format with 180 μL reaction volume using biotinylated compound BRD7087-Biotin and streptavidin sensors. […]

Structures are written as SMILES.

Chain of SpCas9 (Q99ZW2 whole entry): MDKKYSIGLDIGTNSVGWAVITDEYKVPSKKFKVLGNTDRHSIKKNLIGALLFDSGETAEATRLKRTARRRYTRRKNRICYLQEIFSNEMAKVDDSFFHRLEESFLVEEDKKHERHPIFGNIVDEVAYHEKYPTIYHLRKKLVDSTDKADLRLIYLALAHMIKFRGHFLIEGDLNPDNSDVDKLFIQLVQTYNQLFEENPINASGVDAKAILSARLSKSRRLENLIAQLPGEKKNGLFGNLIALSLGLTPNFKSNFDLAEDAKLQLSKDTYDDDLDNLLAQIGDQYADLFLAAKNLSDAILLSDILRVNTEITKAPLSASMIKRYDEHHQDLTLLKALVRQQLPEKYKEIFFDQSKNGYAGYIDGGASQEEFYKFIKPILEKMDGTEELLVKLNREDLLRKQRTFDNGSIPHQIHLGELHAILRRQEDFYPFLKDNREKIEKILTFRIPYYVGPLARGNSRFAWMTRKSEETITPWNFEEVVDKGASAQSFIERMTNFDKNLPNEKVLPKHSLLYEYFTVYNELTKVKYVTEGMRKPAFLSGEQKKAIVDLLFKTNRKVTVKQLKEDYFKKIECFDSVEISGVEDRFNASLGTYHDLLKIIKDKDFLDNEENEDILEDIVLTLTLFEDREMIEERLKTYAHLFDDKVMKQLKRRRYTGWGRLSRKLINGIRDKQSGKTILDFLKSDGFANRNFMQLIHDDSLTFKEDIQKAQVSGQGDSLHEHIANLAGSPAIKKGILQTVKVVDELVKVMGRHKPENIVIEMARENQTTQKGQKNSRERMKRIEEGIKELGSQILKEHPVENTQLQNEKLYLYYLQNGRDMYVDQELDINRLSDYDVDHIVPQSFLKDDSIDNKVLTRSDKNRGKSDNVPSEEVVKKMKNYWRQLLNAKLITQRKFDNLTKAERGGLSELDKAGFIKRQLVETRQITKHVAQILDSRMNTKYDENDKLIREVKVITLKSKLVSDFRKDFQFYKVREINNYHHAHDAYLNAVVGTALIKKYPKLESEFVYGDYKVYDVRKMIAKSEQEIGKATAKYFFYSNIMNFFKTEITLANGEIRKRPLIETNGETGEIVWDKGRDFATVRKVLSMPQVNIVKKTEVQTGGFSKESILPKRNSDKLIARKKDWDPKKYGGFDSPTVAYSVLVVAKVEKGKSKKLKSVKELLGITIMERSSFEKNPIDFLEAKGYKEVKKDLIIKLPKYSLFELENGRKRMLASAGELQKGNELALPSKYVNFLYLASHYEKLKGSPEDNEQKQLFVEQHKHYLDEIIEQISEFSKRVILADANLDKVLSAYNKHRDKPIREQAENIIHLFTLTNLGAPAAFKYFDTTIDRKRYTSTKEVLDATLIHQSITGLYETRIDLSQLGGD
T1 sequence (Q99ZW2 whole entry, one chain of several): as the sequence (Q99ZW2 whole entry) above

As to `OC[C@H]1Nc2ccc(-c3cccc(F)c3)cc2[C@@H]2[C@H]1CCN2Cc1ccncc1` [BRD0750, ((3aS,4S,9bS)-8-(3-Fluorophenyl)-1-(pyridin-4-ylmethyl)-2,3,3a,4,5,9b-hexahydro-1H-pyrrolo[3,2-c]quinolin-4-yl)methanol], on SpCas9, the “potency of stereoisomers in EGFP-disruption assay relative to BRD7087 / BRD5779” value is listed as “less potent”. Turning to `OC[C@@H]1Nc2ccc(-c3cccc(F)c3)cc2[C@H]2[C@@H]1CCN2Cc1ccncc1` [BRD2161, ((3aR,4R,9bR)-8-(3-Fluorophenyl)-1-(pyridin-4-ylmethyl)-2,3,3a,4,5,9b-hexahydro-1H-pyrrolo[3,2-c]quinolin-4-yl)methanol], the “potency of stereoisomers in EGFP-disruption assay relative to BRD7087 / BRD5779” value at SpCas9 is on record as “less potent”. Consider `OC[C@@H]1Nc2ccc(-c3cccc(F)c3)cc2[C@@H]2[C@H]1CCN2Cc1ccncc1` [BRD5039, ((3aS,4R,9bS)-8-(3-Fluorophenyl)-1-(pyridin-4-ylmethyl)-2,3,3a,4,5,9b-hexahydro-1H-pyrrolo[3,2-c]quinolin-4-yl)methanol], for which, at SpCas9, the “potency of stereoisomers in EGFP-disruption assay relative to BRD7087 / BRD5779” value is “equipotent as BRD7087”. With `O=C(CCCC[C@@H]1SC[C@@H]2NC(=O)N[C@@H]21)NCCOCCOCCOCCC(=O)Nc1cccc(-c2ccc3c(c2)[C@H]2[C@H](CCN2Cc2ccncc2)[C@@H](CO)N3)c1` [biotin-conjugate of BRD7087, N-(2-(2-(2-(3-((3-((3aR,4S,9bR)-4-(Hydroxymethyl)-1-(pyridin-4-ylmethyl)-2,3,3a,4,5,9b-hexahydro-1H-pyrrolo[3,2-c]quinolin-8-yl)phenyl)amino)-3-oxopropoxy)ethoxy)ethoxy)ethyl)-5-((3aS,4S,6aR)-2-oxohexahydro-1H-thieno[3,4-d]imidazol-4-yl)pentanamide], the “BLI response signal in competitive experiment” value on SpCas9:gRNA complex is reported as “no substantial response signal”.
